Laboratory results as given in patent US11517575B2, “Use of minaprine to reduce tumor growth” (Institut Gustave-Roussy, priority 2019, dated 2022).
Peptide text beside a SMILES is read from it. * marks the point of attachment. Cbz = O=C(OCc1ccccc1)*; CH2F = FC*

Tested on: HCT116 cells
Assay: Cell death profiling by quantitative flow imaging of irradiated/non-irradiated co-cultures with death effector inhibitors
Type: cell-based, human
Conditions: 4 Gy, 24 h co-culture; for engulfment of neighboring cells by gamma-irradiated CMFDA+ cells (cell-in-cell structures): Y27632 30 μM; for PS exposure on outer plasma membrane of irradiated CMFDA+ cells: Rosco 10 μM
Protocol: FIG. 2 Detection of γ-irradiation-elicited cell autonomous death modalities by quantitative imaging flow-cytometry. (A-E) Detection and quantification of plasma membrane integrity loss and PS exposure observed after 24 hour co-culture of untreated (red/dark grey) CMTMR-labeled HCT116 cells and untreated (green/light grey) CMFDA-labeled HCT116 cells (A, C-E), of untreated (red/dark grey) CMTMR-labeled HCT116 cells and untreated (green/light grey) CMFDA-labeled HCT116 cells that have been extemporally mixed (C-E) or after 24 hour co-culture of untreated (red/dark grey) […] HCT116 cells with (green/light grey) CMFDA-labeled HCT116 cells (green) that have been irradiated with 4 grays of γ-ionizing radiation (B-E). The co-cultures have been performed in presence or absence of the indicated pharmacological death effector inhibitors. The detection of plasma membrane integrity (with DRAQ7) and PS exposure (with BV786-streptavidin/Annexin V biotin) have been analyzed for the untreated (red/dark grey) CMTMR^+ HCT116 cells, for untreated (green/light grey) CMFDA^+ HCT116 cells, for treated (green/light grey) CMFDA^+ HCT116 cells and for total cell population (CMTMR^+ or CMFDA^+ HCT116 cells). Representative dot plots (A,B) and quantitative data (C-E) are shown (means±SEM, n=3). (F,G) Representative cell cycle distributions of untreated (red/dark grey) CMTMR^+ HCT116 cells, untreated (green/light grey) CMFDA^+ HCT116 cells, treated (green/light grey) CMFDA^+ HCT116 cells and for total cell population (CMTMR^+ or CMFDA^+ HCT116 cells) obtained after 24 hour co-culture of untreated (red/dark grey) CMTMR-labeled HCT116 cells with untreated (green/light grey) CMFDA-labeled HCT116 cells (F, H-J), of untreated (red/dark grey) CMTMR-labeled HCT116 cells and untreated (green/light grey) CMFDA-labeled HCT116 cells that have been extemporally mixed (H-J) or after 24 hour co-culture of untreated (red/dark grey) CMTM-labeled HCT116 cells with (green/light grey) CMFDA-labeled HCT116 cells (green/light grey) that have been irradiated with 4 grays of γ-ionizing radiation (G-J) are shown. Quantitative data of cell cycle analysis are shown in (H-J) (means±SEM, n=3). * or # or $ represents p<0.05, ## or $$ p<0.01, *** or ###p<0.001.
FIG. 3 Detection of γ-irradiation-elicited non-cell autonomous death modalities by quantitative imaging flow-cytometry and confocal fluorescence microscopy. (A-G) Cell-in-cell structures and target cell degradation were determined by quantitative imaging (A-C) and confocal fluorescent microscopy (D-G) after 24 hour co-culture of untreated (red/dark grey) CMTM-labeled HCT116 cells with (green/light grey) CMFDA-labeled HCT116 cells that have been irradiated with 4 grays of γ-ionizing radiation (A), coculture of untreated (red/dark grey) CMTMR-labeled HCT116 cells with untreated (green/light grey) CMFDA-labeled HCT116 cells (B, C) or on CMTMR labeled (red/dark grey) HCT116 cells and untreated (green/light grey) CMFDA-labeled HCT116 cells that have been extemporally mixed (B, C). As previously described, cells have been sequentially labeled after co-cultures with specific fluorescent probes like BV786-streptavidin-Annexin V biotin, DRAQ7, and Hoechst 33342. Then, (red/dark grey) CMTMR-labeled HCT116 cells internalizing (green/light grey) CMFDA-labeled HCT116 cells (noted R(G)), and (green/light grey) CMFDA-labeled HCT116 cells internalizing (red/dark grey) CMTMR-labeled HCT116 cells (noted G(R)) were detected. Representative images are shown in (A) (scale, 20 μm). Frequencies of Cell-in-Cell structures (B) and target cell degradation (C) are reported (means±SEM, n=3). Representative confocal images of cell-in-cell structures (white arrow) (D) and target cell degradation (white dotted arrow) (E) detected during co-culture of untreated (red) CMTMR-labeled HCT116 cells with untreated or γ-irradiated (green) CMFDA-labeled cells are shown (scale bar=10 μm). […]

Row | SMILES | engulfment of neighboring cells by gamma-irradiated CMFDA+ cells (cell-in-cell structures) (ZVAD 100 μM) | PS exposure on outer plasma membrane of irradiated CMFDA+ cells (ZVAD 100 μM) | cellular degradation of engulfed CMTMR+ cells (ZVAD 100 μM, YVAD 100 μM) | frequency of dying cells (AnnexinV+DRAQ7- and DRAQ7+) (total, non-irradiated CMTMR+ and irradiated CMFDA+ cells, BafA1 50 nM)
1 | C[C@@H](N)[C@H]1CC[C@H](C(=O)Nc2ccncc2)CC1 [Y27632] | repressed | – | – | –
2 | COC(=O)CC(NC(=O)C(C)NC(=O)C(NC(=O)OCc1ccccc1)C(C)C)C(=O)CF (stereo not drawn) [Z-VAD-fmk, Benzyloxycarbonyl-Val-Ala-Asp(OMe)-fluoromethylketone] (Cbz-Val-Ala-Asp(OMe)-CH2F; configuration not given here) | not affected | inhibited the exposure of PS | significantly reduced | –
3 | CO/C1=C\C(C)=C\[C@@H](C)[C@@H](O)[C@@H](C)C/C(C)=C/C=C/[C@H](OC)[C@@H]([C@@H](C)[C@@H](O)[C@H](C)[C@@]2(O)C[C@@H](O)[C@H](C)[C@@H](C(C)C)O2)OC1=O [bafilomycin A1, Bafilomycin A1] | – | – | – | increased the frequency of dying cells
4 | CC[C@H](CO)Nc1nc(NCc2ccccc2)c2ncn(C(C)C)c2n1 [roscovitine, Roscovitine] | – | inhibited the exposure of PS | – | –
